From patent publication US11365185B2, “Lysophosphatidic acid receptor 1 (LPAR1) inhibitor compounds” (Eli Lilly and Company, priority 2017, dated 2022)
Marks after values point to notes of the source that are not given here.

Columns and labels:
[1] = Rodent Pharmacokinetics - Rat PK; format: in vivo, male Sprague-Dawley rats; details: male, Sprague-Dawley, plasma
Method: (§1) The pharmacokinetics of compounds are determined in male Sprague-Dawley rats or C57 mice. The rats are administered a single 1 mg/kg intravenous (IV) and 10 mg/kg oral gavage (PO) dose. The vehicles are 20% Captisol w/v in 25 mM NaPO4 buffer, pH8 and 1% hydroxyethylcellulose/0.25% polysorbate 80 and 0.05% antifoam 1510-US in distilled water for the intravenous and oral dose, respectively. Blood samples are collected at predose (PO only), 0.08 (IV only), 0.25, 0.5, 1, 2, 4, 8, 12 and 24 h after initiation of compound administration. Blood samples are centrifuged to obtain plasma. The plasma samples are analyzed by LC-MS/MS to determine compound concentrations.

[2] = test system: Human hepatic stellate cell line LX-2; experiment: Calcium Influx of Human Hepatic Stellate Cells (LX-2); format: cell-based; details: LX-2 cells, LPA-stimulated calcium influx
Method: Calcium Influx of Human Hepatic Stellate Cells (LX-2)
Human hepatic stellate cell line LX-2 is purchased from EMD Millpore. LX-2 cells are seeded at 20,000-40,000 cells per well in a 96-well poly-D-lysine coated plate one day before the assay. Prior to the assay, the cells are washed once with assay buffer (HBSS containing 20 mM HEPES and 0.2% BSA) and then incubated in 50 μl of assay buffer for 60 minutes. Then 50 μl of a calcium indicator dye (Fluo-4 NW, Molecular Probes) are added to each well and incubation is continued for 30 minutes at 37° C. and then 30 minutes at room temperature. 50 μl of test compounds in 4% DMSO are added to the cells and incubation is continued at room temperature for 40 minutes. Cells are stimulated by the addition of 50 μl of 128 nM LPA and intracellular calcium is measured using the FLIPR TETRA (Molecular Devices). IC50 values are determined using “Genedata Screener” analysis tool.

[3] = target: T1, LPAR1 (Homo sapiens (Human), UniProt Q92633); experiment: LPAR1 Membrane Binding Assay; details: membrane containing LPAR1, radio labeled ligand, SPA
Method: LPAR1 Membrane Binding Assay
The ability of a compound to inhibit binding of a ligand (1-(4′-(4-(((benzyloxy)carbonyl)amino)-3-methylisoxazol-5-yl)-[1,1′-biphenyl]-4-yl)cyclopropane-1-carboxylic acid) to LPAR1 is assessed via a membrane binding assay. Membrane containing LPAR1 was purchased from Cerep (Cat. No. 290312RB). Prior to the assay, membrane is thawed and homogenized for 15 seconds. 50 μl of test compounds and 50 μl of radio labeled ligand are added to the 96-well plates and then 50 of μl membrane (50-400 ug/ml) are added. Next, 50 μl of SPA PVT WGA beads are added (1-5 mg/ml) and the plates are sealed and incubated at room temperate for 5 minutes. Radio activity is measured by Beta Counter and IC50 values are determined using “Genedata Screener” analysis tool.
Target sequence in this assay (Q92633 whole entry, species assumed): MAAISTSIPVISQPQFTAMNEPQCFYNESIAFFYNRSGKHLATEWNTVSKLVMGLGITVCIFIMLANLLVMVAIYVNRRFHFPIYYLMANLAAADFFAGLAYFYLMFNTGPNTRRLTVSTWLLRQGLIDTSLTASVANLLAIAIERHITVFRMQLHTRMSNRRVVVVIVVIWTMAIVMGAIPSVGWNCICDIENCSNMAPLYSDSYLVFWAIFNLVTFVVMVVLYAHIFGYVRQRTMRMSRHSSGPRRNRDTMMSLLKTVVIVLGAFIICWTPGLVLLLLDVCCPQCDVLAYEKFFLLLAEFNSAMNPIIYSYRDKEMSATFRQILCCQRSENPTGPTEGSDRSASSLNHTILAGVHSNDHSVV

[4] = target: human LPAR3 (Homo sapiens (Human), UniProt Q9UBY5); experiment: LPAR3 Calcium Flux Assay; format: cell-based; details: U2OS cells overexpressing human LPAR3, LPA-stimulated calcium, FLIPR
Method: LPAR3 Calcium Flux Assays
(§2) A cDNA encoding the human LPAR3 receptor is synthesized and cloned into pDNA3 expression plasmid. The plasmid is transfected in U2OS cells using Lipofectamine 2000 (Invitrogen Corp., USA). Clones stably expressing human LPAR3 are selected using neomycin and identified as cells that show Ca-influx in response to LPA.
U2OS cells overexpressing human LPAR3 are seeded at 20,000-40,000 cells per well in a 96-well poly-D-lysine coated plate one day before the assay. Prior to the assay, the cells are washed once with assay buffer (HBSS containing 20 mM HEPES and 0.2% BSA) and then incubated in 50 μl of assay buffer for 60 minutes. Then 50 μl of a calcium indicator dye (Fluo-4 NW, Molecular Probes) are added to each well and incubation is continued for 30 minutes at 37° C. and then 30 minutes at room temperature. 50 μl of test compounds in 4% DMSO are added to the cells and incubation continued at room temperature for 40 minutes. Cells are stimulated by the addition of 50 μl of 128 nM LPA and intracellular calcium is measured using the FLIPR TETRA (Molecular Devices). IC50 values are determined using “Genedata Screener” analysis tool.

[5] = test system: Male C57B1/6 mice; experiment: Diet-Induced Liver Inflammation and Fibrosis; format: in vivo; details: for Peri-sinusoidal Fibrosis Score: vehicle 1.37; for Inflammation Score: vehicle 2.7
Method: Diet-Induced Liver Inflammation and Fibrosis
Male C57B1/6 mice (7-8 weeks old) are given free access to food and water. Mice are fed with high fat, high sucrose and high cholesterol food for 196 days. Then animals will be administrated orally with vehicle or test compounds once daily for 77 days at a volume of 5 ml/kg. Body weight and food intake will be measured twice a week, after two weeks, BW and FI will be measured once a week. At the end of study, animals will be euthanized by CO2 suffocation. Liver samples of the animals are collected and fixed in 10% NBF. Liver samples are prepared after 20 to 24 hours of fixation in 10% NBF and prepared into FFPE blocks. Slide sections of FFPE blocks are processed with H&E and Masson's Trichrome staining. Histopathology interpretation and results will be provided by qualified pathologists. The data are plotted using Graphpad prism and statistical differences between groups determined.

[6] = target: T1, LPAR1; experiment: LPAR1 Calcium Flux Assay; format: cell-based; details: U937 cells overexpressing human LPAR1, LPA-stimulated calcium, FLIPR
Method: LPAR1 Calcium Flux Assays
as §2, with “LPAR1” for “LPAR3”, “U937” for “U2OS”, “puromycin” for “neomycin”
Target sequence in this assay (Q92633 whole entry): as the sequence (Q92633 whole entry, species assumed) above
U937 cells overexpressing human LPAR1 are seeded at 100,000 cells per well in a 96-well fibronectin (10 ug/ml) coated plate in 60 μl of assay buffer (HBSS containing 20 mM HEPES and 0.2% BSA) and then incubated for 60 minutes. Then 50 μl of a calcium indicator dye (Fluo-4 NW, Molecular Probes) are added to each well and incubation continued for 30 minutes at 37° C. and then 30 minutes at room temperature. 50 μl of test compounds in 4% DMSO are added to the cells and incubation continued at room temperature for 40 minutes. Cells are the stimulated by the addition of 50 μl of 128 nM LPA and intracellular calcium is measured using the FLIPR TETRA (Molecular Devices). IC50 values are determined using “Genedata Screener” analysis tool.

[7] = Rodent Pharmacokinetics - Mouse PK; format: in vivo, C57 mice; details: C57, plasma
Method: as §1

[8] = test system: Male C57BL/6J mice; experiment: Mouse Intravenous LPA-Induced Histamine and Eicosanoids Release; format: in vivo; details: 10 mg/kg orally 2 hours before intravenous LPA; plasma
Method: Mouse Intravenous LPA-Induced Histamine and Eicosanoids Release
A mouse intravenous LPA-induced histamine and eicosanoids release model is utilized to determine the in vivo potency of the compounds of the present invention. Male C57BL/6J mice weighing 20-25 grams are given free access to standard mouse chow and water. LPA is dissolved in 0.1% fatty acid-free bovine serum albumin to generate solution at 2 mg/mL. Test compounds are formulated in 0.5% methyl cellulose plus 0.25% Tween 80 to generate required concentrations one day before the experiment and stored in a refrigerator until use. Animals are dosed orally with test compounds at 10 ml/kg 2 hours before the intravenous LPA dosing (300 ug per mouse) with 30 gauge needles through tail vain. Two hours after LPA dosing the animals are euthanized by CO2 suffocate. Blood will be collected by cardiac puncture. Blood samples are kept on ice for more than 5 minutes and centrifuged at 4000 rpm for 10 minutes at 4° C. to generate supernatant plasma. The plasma histamine, methylimidazol acetic acid and eicosanoids levels are measured by LC/MS.

[9] = 10 mg/kg orally once daily for 77 days
[10] = 30 mg/kg orally once daily for 77 days

Chain of human LPAR3 (Q9UBY5 whole entry): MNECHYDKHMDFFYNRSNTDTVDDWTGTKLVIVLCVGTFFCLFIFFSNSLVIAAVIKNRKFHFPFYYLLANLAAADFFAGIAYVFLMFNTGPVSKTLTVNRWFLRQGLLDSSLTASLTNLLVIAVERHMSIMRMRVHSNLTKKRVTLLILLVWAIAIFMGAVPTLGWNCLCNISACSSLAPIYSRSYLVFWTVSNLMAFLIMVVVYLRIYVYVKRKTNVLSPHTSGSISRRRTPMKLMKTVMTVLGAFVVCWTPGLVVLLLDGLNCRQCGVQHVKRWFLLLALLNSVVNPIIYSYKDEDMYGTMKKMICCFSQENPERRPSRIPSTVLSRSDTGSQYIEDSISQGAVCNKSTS

AUC ([1]; 10 mg/kg, PO): 80.1 µM·h
clearance ([1]; intravenous, 1 mg/kg): 4.23 mL/min/kg
Vd ([1]; intravenous, 1 mg/kg, read-out: Vdss): 0.799 L/kg
bioavailability ([1]; oral, 10 mg/kg): 93.6%
IC50 [2]: 0.00888 µM
Ki [3]: 0.0153 µM
IC50 [4]: 1.98 µM
IC50 [6]: 0.0206 µM
AUC ([7]; 10 mg/kg, PO): 38.4 µM·h
clearance ([7]; intravenous): 3.5 mL/min/kg
Vd ([7]; intravenous, read-out: Vdss): 0.953 L/kg
bioavailability ([7]; oral, 10 mg/kg): 40.8%
SMILES: CC(C)c1cncc(Nc2c(-c3ccc(-c4ccc(C5(C(=O)O)CC5)cc4)cn3)cnn2C)n1 [Example 27, 1-[4-[6-[5-[(6-isopropylpyrazin-2-yl)amino]-1-methyl-pyrazol-4-yl]-3-pyridyl]phenyl]cyclopropanecarboxylic Acid]
Peri-sinusoidal Fibrosis Score [5, 9]: 1.30
Inflammation Score [5, 9]: 2.1*
Peri-sinusoidal Fibrosis Score [5, 10]: 1.07^$
Inflammation Score [5, 10]: 2.3^#
% of inhibition, histamine [8]: 89.5 ± 1.6%
% of inhibition, methylimidazoleacetic acid [8]: 100.8 ± 3.4%
